Test results taken from patent publication US9510598B2, “Nitrogen-containing heterocyclic compounds for plant disease control” (BAYER CROPSCIENCE AG, priority 2012, dated 2016).
Like-named read-outs stand apart in the source and are kept apart here.

Columns and labels:
Septoria tritici = test: In vivo preventive test on Septoria tritici (leaf spot on wheat); conditions: 500 ppm; wheat plants sprayed 24 hours before contamination; grading 21 to 28 days after contamination vs control plants
Procedure: Wheat plants (“Scipion” variety), sown in starter cups on a 50/50 peat soil-pozzolana substrate and grown at 22° C. (12 h)/20° C. (12 h), are treated at the 1-leaf stage (10 cm height) by spraying with the active ingredient prepared as described above. Plants, used as controls, are treated with the mixture of acetone/tween/DMSO/water not containing the active material. After 24 hours, the plants are contaminated by spraying the leaves with an aqueous suspension of cryopreserved Septoria tritici spores (500 000 spores per ml). […] Grading (% of efficacy) is carried out 21 to 28 days after the contamination, in comparison with the control plants.

[1] = assay type: physicochemical
[2] = HPLC on reversed phase columns, method [a]: pH 2.7, 0.1% formic acid in water / acetonitrile, linear gradient 10% to 95% acetonitrile
[3] = method [a]: HPLC/LC-MS on reversed phase at pH 2.7, 0.1% formic acid in water / acetonitrile, linear gradient 10% to 95% acetonitrile
[4] = method [a]: HPLC/LC-MS on reversed phase at pH 2.7, 0.1% formic acid in water / acetonitrile, gradient 10% to 95% acetonitrile
[5] = HPLC on reversed phase columns, method [a]: pH 2.7, 0.1% formic acid in water and acetonitrile, linear gradient 10% to 95% acetonitrile

SMILES	% of efficacy (protection) (Septoria tritici)	log P [1, 3]	also measured
C#Cc1cnc2ccc(C3=NOC(C)(C(=O)NC(C)c4ccccc4)C3)cc2c1 (centres unmarked) [compound 350]	100%		log P [1, 2]: 3.06[a]
C#CCCNC(=O)C1(C)CC(c2ccc3ncc(C#C)cc3c2)=NO1 (racemic) [compound 355]	100%		log P [1, 2]: 2.25[a]
C#Cc1cnc2ccc(C3=NOC(C)(C(=O)NCC4CCC(C(F)(F)F)CC4)C3)cc2c1 (centres unmarked) [compound 121]	75%	3.61^[a]	
CC1(C(=O)NC2CCCC2)CC(c2ccc3ncc(Br)cc3c2)=NO1 (racemic) [compound 390]	98%		log P [1, 4]: 3.29[a]
CCn1cc(CNC(=O)C2(C)CC(c3ccc4nc(OC)c(I)cc4c3)=NO2)c(C)n1 (centres unmarked) [compound 472]	75%		log P [1, 4]: 3.11[a]
C#Cc1cnc2ccc(C3=NOC(C)(C(=O)NCc4ccc(Cl)nc4)C3)cc2c1 (centres unmarked) [compound 160]	71%	2.44^[a]	
CC(C)NC(=O)C1(C)CC(c2ccc3ncccc3c2)=NO1 (centres unmarked) [compound 143]	71%	1.44^[a]	
CC(O)C1(C(=O)NCC2COC(C)(C)O2)CC(c2ccc3ncc(Br)cc3c2)=NO1 (mixture of isomers) [compound 555]	71%		
CCOC1(C(=O)NCc2cn(CC)nc2C)CC(c2ccc3ncc(Br)cc3c2)=NO1 (centres unmarked) [compound 416]	100%		log P [1, 4]: 1.95[a]
C#Cc1cnc2ccc(C3=NOC(OC)(C(=O)NC(C)(C)c4ccon4)C3)cc2c1 (centres unmarked) [compound 509]	97%		log P [1, 4]: 2.52[a]
C#Cc1cnc2ccc(C3=NOC(OC)(C(=O)N(OC)C(C)C)C3)cc2c1 (centres unmarked) [compound 468]	100%		log P [1, 4]: 2.96[a]
COC1(C(=O)N(C)C)CC(c2ccc3ncc(Br)cc3c2)=NO1 (centres unmarked) [compound 396]	97%		log P [1, 4]: 2.51[a]
C#Cc1cnc2ccc(C3=NOC(C)(C(=O)NCc4cnn(-c5ccccc5)n4)C3)cc2c1 (centres unmarked) [compound 189]	71%	3.11^[a]	
Cc1nn(C(C)C)c(C)c1CNC(=O)C1(C)CC(c2ccc3ncc(Br)cc3c2)=NO1 (centres unmarked) [compound 184]	71%	2.6^[a]	
C=Cc1cnc2ccc(C3=NOC(C)(C(=O)NC(C)C)C3)cc2c1 (centres unmarked) [compound 304]	100%		log P [1, 2]: 2.20[a]
C#Cc1cnc2ccc(C3=NOC(C)(C(=O)NCC4CCCOC4c4ccccc4)C3)cc2c1 (centres unmarked) [compound 222]	71%	3.11^[a]	
CCn1cc(CNC(=O)C2(CCl)CC(c3ccc4ncc(Br)cc4c3)=NO2)c(C)n1 (centres unmarked) [compound 138]	93%	2.56^[a]	
C=CC1(C(=O)NCC2COC(C)(C)O2)CC(c2ccc3ncc(Br)cc3c2)=NO1 (centres unmarked) [compound 732]	100%		log P [1, 5]: 2.98[a]
C#Cc1cc2cc(C3=NOC(C)(C(=O)NCc4cn(CC)nc4C)C3)ccc2nc1OC (centres unmarked) [compound 490]	88%		log P [1, 4]: 2.55[a]

SMILES	% of efficacy (protection) (Septoria tritici)	log P [1, 3]	also measured
CCn1cc(CNC(=O)C2(CBr)CC(c3ccc4ncc(Br)cc4c3)=NO2)c(C)n1 (centres unmarked) [compound 137]	93%	2.62^[a]	
CC1(C)OCC(CNC(=O)C2(C(F)F)CC(c3ccc4ncc(I)cc4c3)=NO2)O1 (centres unmarked) [compound 618]	93%		log P [1, 2]: 3.06[a]
CC1(C(=O)NCc2ccc3ncsc3c2)CC(c2ccc3ncc(Br)cc3c2)=NO1 (centres unmarked) [compound 243]	71%		log P [1, 2]: 2.7^[a]
CCONC(=O)C1(C)CC(c2ccc3ncc(Br)cc3c2)=NO1 (racemic) [compound 389]	100%		log P [1, 4]: 2.17[a]
CCOCCCNC(=O)C1(Cc2ccccc2)CC(c2ccc3ncc(Br)cc3c2)=NO1 (centres unmarked) [compound 59]	70%	3.8^[a]	
CC(C)ONC(=O)C1(C)CC(c2ccc3ncc(Br)cc3c2)=NO1 (racemic) [compound 388]	100%		log P [1, 4]: 2.44[a]
CC(NC(=O)C1(C)CC(c2ccc3ncc(Br)cc3c2)=NO1)c1ccccc1 (centres unmarked) [compound 292]	96%		log P [1, 2]: 3.46[a]
CC(NC(=O)C1(C)CC(c2ccc3ncc(Br)cc3c2)=NO1)c1nccs1 (centres unmarked) [compound 310]	100%		log P [1, 2]: 2.56[a]
C#Cc1cnc2ccc(C3=NOC(C)(C(=O)NC(C)c4cccc5ccccc45)C3)cc2c1 (centres unmarked) [compound 339]	78%		log P [1, 2]: 3.85[a]
C#Cc1cnc2ccc(C3=NOC(C)(C(=O)NC(C)c4sc(C)nc4C)C3)cc2c1 (centres unmarked) [compound 333]	98%		log P [1, 2]: 2.20[a]
C#Cc1cnc2ccc(C3=NOC(C)(C(=O)NC(C)c4ccncc4)C3)cc2c1 (centres unmarked) [compound 335]	78%		log P [1, 2]: 1.28[a]
CC1(C(=O)NCc2ccc(Cl)nc2)CC(c2ccc3ncc(Br)cc3c2)=NO1 (centres unmarked) [compound 104]	92%	2.73^[a]	
CCn1cc(CNC(=O)C2(C)CC(c3cc4cc(Br)cnc4c(F)c3OC)=NO2)c(C)n1 (centres unmarked) [compound 29]	100%	2.47^[a]	
C#Cc1cnc2ccc(C3=NOC(C)(C(=O)NCC(OC)OC)C3)cc2c1 (racemic) [compound 366]	100%		log P [1, 4]: 2.13[a]
C#Cc1cnc2ccc(C3=NOC(C)(C(=O)NC(C)c4ccccc4Cl)C3)cc2c1 (centres unmarked) [compound 349]	94%		log P [1, 2]: 3.42[a]
CCn1cc(CNC(=O)C2(F)CC(c3ccc4ncc(Br)cc4c3)=NO2)c(C)n1 (centres unmarked) [compound 279]	75%		log P [1, 2]: 2.38[a]
Cc1cnc(CNC(=O)C2(C(C)O)CC(c3ccc4ncc(Br)cc4c3)=NO2)cn1 (mixture of isomers) [compound 562]	86%		
CC1(C(=O)NCc2cn[nH]c2-c2cccs2)CC(c2ccc3ncc(Br)cc3c2)=NO1 (centres unmarked) [compound 191]	71%	2.51^[a]	
COC1(C(=S)NC(C)C)CC(c2ccc3ncc(Br)cc3c2)=NO1 (centres unmarked) [compound 410]	100%		log P [1, 4]: 3.69[a]

SMILES	% of efficacy (protection) (Septoria tritici)	log P [1, 3]	also measured
Cc1cc(NC(=O)C2(C)CC(c3cc4cc(Br)cnc4c(F)c3F)=NO2)n(C)n1 (centres unmarked) [compound 18]	93%		Log P ([1]; method [a]: HPLC/LC-MS on reversed phase at pH 2.7, 0.1% formic acid in water and acetonitrile, linear gradient 10% to 95% acetonitrile): 2.6^[a]
CCn1cc(NC(=O)C2(C)CC(c3ccc4ncc(Br)cc4c3)=NO2)c(C)n1 (centres unmarked) [compound 489]	93%		log P [1, 4]: 2.50[a]
Cc1cnc(CNC(=O)C2(C)CC(c3cc(Cl)c4ncc(Br)cc4c3)=NO2)cn1 (centres unmarked) [compound 556]	97%		log P [1, 2]: 2.64[a]
C#Cc1cnc2ccc(C3=NOC(C)(C(=O)NC(CC)c4cn(CC)nc4C)C3)cc2c1 (centres unmarked) [compound 347]	100%		log P [1, 2]: 2.52[a]
CC(C)NC(=O)C1ON=C(c2ccc3ncc(Br)cc3c2)C1C (racemic) [compound 376]	86%		log P [1, 4]: 2.64[a]
CC1(C(=O)NC(C)(C#N)C2CC2)CC(c2ccc3ncc(Br)cc3c2)=NO1 (centres unmarked) [compound 301]	80%		
C#CCCNC(=O)C1(C)CC(c2ccc3ncc(Br)cc3c2)=NO1 (centres unmarked) [compound 353]	94%		log P [1, 2]: 2.52[a]
C#Cc1cnc2ccc(C3=NOC(C)(C(=O)NCc4ccc(C)n4C)C3)cc2c1 (centres unmarked) [compound 153]	71%	2.88^[a]	
CCC(C)NC(=O)C1(C)CC(c2cc3cc(Br)cnc3c(OC)c2OC)=NO1 (centres unmarked) [compound 28]	100%	3.21^[a]	
CCn1cc(CNC(=O)C2(C)CC(c3ccc4ncc(Cl)cc4c3)=NO2)c(C)n1 (centres unmarked) [compound 54]	100%	2.28^[a]	
CCn1cc(CNC(=O)C2(C)CC(c3ccc4ncc(C#C[Si](C)(C)C)cc4c3)=NO2)c(C)n1 (centres unmarked) [compound 149]	93%	3.79^[a]	
C#Cc1cnc2ccc(C3=NOC(OC)(C(=O)NCC(O)CO)C3)cc2c1 (centres unmarked) [compound 473]	75%		log P [1, 4]: 1.44[a]
C#Cc1cc2cc(C3=NOC(C)(C(=O)NC(C)C)C3)ccc2nc1Cl (centres unmarked) [compound 134]	71%	3.08^[a]	
C#Cc1cnc2ccc(C3=NOC(C)(C(=O)NCc4ccc(-c5csnn5)cc4)C3)cc2c1 (centres unmarked) [compound 86]	75%	2.82^[a]	
CC(C)NC(=O)C12CC1C(c1ccc3ncc(Br)cc3c1)=NO2 (racemic) [compound 397]	75%		log P [1, 4]: 2.82[a]
CC(NC(=O)C1(C)CC(c2ccc3ncc(Br)cc3c2)=NO1)c1ccsc1 (centres unmarked) [compound 295]	80%		log P [1, 2]: 3.35[a]
CC(C)(C#N)NC(=O)C1(C)CC(c2ccc3ncc(Br)cc3c2)=NO1 (centres unmarked) [compound 716]			log P [1, 5]: 2.68[a]
C#Cc1cnc2ccc(C3=NOC(C)(C(=O)NCc4ccnc(O)c4)C3)cc2c1 (centres unmarked) [compound 758]			log P [1, 5]: 1.54[a]
